The values that follow are results of earlier work, collected in US20180036237A1, “OIL/SURFACTANT MIXTURES FOR SELF-EMULSIFICATION” (priority 2015, published 2018).

For this series the following is noted: single surfactant.

In the case of polyoxyethylene cetostearyl ether, the HLB is listed as 13.5.
